# Key:
# Assay in all cases: biochemical
# Set-up in all cases: KINOMEscan competition binding, DNA-tagged kinase against immobilised ligand, qPCR read-out
# DYRK1A = DYRK1A (Homo sapiens, UniProt Q13627); details: read-out: Percent Control
# RIOK2 = RIOK2 (Homo sapiens, UniProt Q9BVS4); details: read-out: Percent Control
# MST4 = target: T1, MST4 (Homo sapiens, UniProt Q9P289); details: read-out: Percent Control
# T1 construct: gene STK26
# FGFR1 = FGFR1 (Homo sapiens, UniProt P11362); details: read-out: Percent Control
# YES1 = YES1 (Homo sapiens, UniProt P07947); details: read-out: Percent Control
# Chain of YES1 (P07947 whole entry): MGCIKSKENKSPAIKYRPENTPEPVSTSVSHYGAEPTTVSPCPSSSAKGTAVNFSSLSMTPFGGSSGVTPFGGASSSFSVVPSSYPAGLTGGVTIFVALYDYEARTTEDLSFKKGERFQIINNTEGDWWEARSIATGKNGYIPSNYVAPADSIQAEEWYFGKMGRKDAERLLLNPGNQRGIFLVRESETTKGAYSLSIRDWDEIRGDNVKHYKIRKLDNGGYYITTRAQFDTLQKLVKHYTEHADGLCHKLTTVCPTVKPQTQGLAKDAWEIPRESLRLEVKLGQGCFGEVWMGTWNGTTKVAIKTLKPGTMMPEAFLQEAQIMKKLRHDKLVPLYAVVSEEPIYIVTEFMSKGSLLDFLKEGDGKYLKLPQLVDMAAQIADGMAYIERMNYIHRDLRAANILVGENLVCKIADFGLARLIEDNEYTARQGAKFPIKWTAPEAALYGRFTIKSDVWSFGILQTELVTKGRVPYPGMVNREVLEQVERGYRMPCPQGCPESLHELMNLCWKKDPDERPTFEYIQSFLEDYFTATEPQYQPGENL
# CDK8 = CDK8 (Homo sapiens, UniProt P49336); details: read-out: Percent Control
# Chain of CDK8 (P49336 whole entry): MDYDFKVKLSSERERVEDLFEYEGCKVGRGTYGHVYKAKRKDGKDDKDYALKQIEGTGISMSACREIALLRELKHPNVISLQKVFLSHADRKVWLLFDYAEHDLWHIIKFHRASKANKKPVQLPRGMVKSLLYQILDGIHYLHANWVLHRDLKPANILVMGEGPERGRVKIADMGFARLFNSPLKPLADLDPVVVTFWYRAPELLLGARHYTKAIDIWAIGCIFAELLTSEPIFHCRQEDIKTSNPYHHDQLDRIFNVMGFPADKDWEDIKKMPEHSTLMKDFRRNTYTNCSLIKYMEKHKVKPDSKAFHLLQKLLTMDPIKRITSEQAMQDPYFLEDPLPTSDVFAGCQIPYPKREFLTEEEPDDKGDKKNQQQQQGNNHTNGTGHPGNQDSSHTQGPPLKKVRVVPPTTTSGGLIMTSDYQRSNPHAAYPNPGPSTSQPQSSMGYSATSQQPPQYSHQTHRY
# CDK7 = CDK7 (Homo sapiens, UniProt P50613); details: read-out: Percent Control
# Chain of CDK7 (P50613 whole entry): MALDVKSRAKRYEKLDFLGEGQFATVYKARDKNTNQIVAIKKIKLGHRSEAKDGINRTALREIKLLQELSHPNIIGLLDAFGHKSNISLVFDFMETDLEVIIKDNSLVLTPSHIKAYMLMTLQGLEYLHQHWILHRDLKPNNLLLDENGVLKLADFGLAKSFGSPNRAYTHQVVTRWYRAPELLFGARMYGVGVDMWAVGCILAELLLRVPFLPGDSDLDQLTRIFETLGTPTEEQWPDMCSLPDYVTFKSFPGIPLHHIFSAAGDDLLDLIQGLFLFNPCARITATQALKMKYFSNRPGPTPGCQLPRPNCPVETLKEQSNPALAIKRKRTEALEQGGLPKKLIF
# CABC1 = target: T2, CABC1 (Homo sapiens, UniProt Q8NI60); details: read-out: Percent Control
# T2 construct: gene COQ8A
# PTK2 = PTK2 (Homo sapiens, UniProt Q05397); details: read-out: Percent Control
# BTK = BTK (Homo sapiens, UniProt Q06187); details: read-out: Percent Control
# Chain of BTK (Q06187 whole entry): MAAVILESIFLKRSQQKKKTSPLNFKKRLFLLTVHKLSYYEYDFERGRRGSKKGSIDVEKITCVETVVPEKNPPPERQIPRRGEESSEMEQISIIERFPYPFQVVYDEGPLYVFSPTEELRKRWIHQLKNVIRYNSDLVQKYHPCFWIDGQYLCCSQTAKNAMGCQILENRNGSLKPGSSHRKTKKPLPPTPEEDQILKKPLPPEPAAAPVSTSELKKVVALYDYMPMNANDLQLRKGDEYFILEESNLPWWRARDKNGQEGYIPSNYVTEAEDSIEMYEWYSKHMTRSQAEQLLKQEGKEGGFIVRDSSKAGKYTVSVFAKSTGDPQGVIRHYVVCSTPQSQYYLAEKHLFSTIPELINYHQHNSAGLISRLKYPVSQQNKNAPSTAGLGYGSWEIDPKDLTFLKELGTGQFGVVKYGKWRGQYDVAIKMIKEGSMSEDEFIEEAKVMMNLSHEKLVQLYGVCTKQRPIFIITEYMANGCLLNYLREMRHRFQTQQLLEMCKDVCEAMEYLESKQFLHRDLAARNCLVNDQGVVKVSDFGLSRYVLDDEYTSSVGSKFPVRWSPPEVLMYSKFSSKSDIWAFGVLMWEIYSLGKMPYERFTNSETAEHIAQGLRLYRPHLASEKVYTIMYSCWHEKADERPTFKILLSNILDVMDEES
# MAP3K19 = MAP3K19 (Homo sapiens, UniProt Q56UN5)
# Chain of MAP3K19 (Q56UN5 whole entry): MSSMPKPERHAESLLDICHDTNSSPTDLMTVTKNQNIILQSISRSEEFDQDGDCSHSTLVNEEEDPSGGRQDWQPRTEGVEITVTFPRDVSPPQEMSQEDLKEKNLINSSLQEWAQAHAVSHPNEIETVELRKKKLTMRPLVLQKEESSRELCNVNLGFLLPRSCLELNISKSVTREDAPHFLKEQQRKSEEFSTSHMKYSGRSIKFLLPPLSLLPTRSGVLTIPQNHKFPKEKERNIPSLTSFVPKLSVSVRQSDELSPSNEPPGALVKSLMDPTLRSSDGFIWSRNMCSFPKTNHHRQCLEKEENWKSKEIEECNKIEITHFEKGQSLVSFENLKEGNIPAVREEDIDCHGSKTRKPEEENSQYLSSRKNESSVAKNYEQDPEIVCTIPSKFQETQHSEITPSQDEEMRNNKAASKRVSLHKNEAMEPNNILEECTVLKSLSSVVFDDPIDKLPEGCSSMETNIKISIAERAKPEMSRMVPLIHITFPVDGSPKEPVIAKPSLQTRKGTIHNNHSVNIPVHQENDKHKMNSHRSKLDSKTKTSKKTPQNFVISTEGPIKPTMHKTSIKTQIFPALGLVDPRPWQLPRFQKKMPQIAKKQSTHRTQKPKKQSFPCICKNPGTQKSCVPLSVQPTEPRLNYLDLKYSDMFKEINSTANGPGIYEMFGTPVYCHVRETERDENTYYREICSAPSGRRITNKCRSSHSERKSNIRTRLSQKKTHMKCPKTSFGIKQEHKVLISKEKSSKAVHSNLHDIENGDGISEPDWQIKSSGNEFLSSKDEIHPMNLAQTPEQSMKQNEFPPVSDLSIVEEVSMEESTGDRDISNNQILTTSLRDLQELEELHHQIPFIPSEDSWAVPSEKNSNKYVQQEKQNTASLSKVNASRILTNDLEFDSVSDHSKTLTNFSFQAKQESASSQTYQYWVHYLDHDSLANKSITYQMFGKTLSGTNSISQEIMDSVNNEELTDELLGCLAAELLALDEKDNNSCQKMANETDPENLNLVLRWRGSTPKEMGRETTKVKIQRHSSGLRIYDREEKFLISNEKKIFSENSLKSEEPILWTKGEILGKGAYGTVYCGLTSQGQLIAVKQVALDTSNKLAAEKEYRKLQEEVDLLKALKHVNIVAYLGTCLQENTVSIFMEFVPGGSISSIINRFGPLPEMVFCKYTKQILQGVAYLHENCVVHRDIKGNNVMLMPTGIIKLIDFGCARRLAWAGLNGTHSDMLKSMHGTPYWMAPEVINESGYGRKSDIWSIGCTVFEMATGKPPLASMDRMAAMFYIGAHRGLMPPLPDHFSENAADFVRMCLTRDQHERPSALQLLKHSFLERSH
# How it was run: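 Inhibitor binding is inferred from reduced capture of DNA-tagged kinase on an immobilised ligand. Captured kinase is quantified by RT-qPCR, with the compound run at eleven threefold-spaced concentrations.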
# MAPK15 = MAPK15 (Homo sapiens, UniProt Q8TD08); details: read-out: Percent Control
# Chain of MAPK15 (Q8TD08 whole entry): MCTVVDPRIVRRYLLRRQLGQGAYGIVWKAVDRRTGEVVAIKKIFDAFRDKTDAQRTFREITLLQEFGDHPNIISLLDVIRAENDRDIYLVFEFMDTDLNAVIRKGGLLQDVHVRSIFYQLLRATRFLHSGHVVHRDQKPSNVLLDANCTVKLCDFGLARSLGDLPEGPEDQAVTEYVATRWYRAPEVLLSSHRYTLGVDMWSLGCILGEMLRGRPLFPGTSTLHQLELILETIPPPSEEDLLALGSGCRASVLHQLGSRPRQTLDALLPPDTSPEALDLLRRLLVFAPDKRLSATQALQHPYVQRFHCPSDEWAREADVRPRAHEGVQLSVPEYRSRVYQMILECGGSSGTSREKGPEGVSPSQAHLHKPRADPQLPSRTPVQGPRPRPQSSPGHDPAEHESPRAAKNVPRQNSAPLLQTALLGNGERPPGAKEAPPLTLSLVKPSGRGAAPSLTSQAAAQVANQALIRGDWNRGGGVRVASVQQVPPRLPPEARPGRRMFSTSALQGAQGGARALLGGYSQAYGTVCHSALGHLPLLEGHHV
# [1] = target: T3, RPS6KA4(Kin.Dom.2-C-terminal) (Homo sapiens, UniProt O75676); details: read-out: Percent Control
# T3 construct: Kin.Dom.2 C-terminal
# FLT4 = FLT4 (Homo sapiens, UniProt P35916); details: read-out: Percent Control
# CDK11B = CDK11B (Homo sapiens, UniProt P21127); details: read-out: Percent Control
# STK4 = STK4 (Homo sapiens, UniProt Q13043); details: read-out: Percent Control
# BMPR1B = BMPR1B (Homo sapiens, UniProt O00238); details: read-out: Percent Control
# CDC2L2 = target: T4, CDC2L2 (Homo sapiens, UniProt Q9UQ88); details: read-out: Percent Control
# T4 construct: gene CDK11A
# RAF1 = RAF1 (Homo sapiens, UniProt P04049); details: read-out: Percent Control
# TNK2 = TNK2 (Homo sapiens, UniProt Q07912); details: read-out: Percent Control
# Chain of RIOK2 (Q9BVS4 whole entry): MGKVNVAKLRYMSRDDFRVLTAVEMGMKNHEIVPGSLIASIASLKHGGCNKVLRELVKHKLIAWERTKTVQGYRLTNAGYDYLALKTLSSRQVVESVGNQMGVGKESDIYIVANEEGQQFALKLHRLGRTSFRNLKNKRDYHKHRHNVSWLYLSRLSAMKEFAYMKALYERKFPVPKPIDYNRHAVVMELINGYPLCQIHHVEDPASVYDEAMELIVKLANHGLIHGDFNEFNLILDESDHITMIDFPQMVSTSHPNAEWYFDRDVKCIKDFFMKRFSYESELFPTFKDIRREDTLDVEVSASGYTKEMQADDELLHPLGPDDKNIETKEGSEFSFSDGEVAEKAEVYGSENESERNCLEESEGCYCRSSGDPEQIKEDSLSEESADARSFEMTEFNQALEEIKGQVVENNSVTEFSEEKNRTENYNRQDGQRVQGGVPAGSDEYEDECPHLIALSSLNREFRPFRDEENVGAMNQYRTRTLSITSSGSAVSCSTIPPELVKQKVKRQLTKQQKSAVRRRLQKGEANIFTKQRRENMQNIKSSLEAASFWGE
# T1 sequence (Q9P289 whole entry): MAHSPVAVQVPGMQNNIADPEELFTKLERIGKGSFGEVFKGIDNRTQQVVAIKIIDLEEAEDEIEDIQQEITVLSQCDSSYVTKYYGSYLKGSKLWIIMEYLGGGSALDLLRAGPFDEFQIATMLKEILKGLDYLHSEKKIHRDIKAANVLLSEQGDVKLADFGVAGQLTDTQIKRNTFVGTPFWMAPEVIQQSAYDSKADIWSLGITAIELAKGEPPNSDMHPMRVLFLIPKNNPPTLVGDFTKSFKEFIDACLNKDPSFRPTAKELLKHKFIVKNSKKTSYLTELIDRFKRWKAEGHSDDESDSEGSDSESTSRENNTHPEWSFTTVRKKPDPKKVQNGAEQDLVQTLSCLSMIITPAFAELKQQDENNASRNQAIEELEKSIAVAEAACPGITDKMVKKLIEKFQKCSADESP
compound,measurement,setting,value
"Oc1ccc(C2=Cc3ccc(O)cc3OC2)cc1 [compound 1, idronoxil]",remaining binding at 10 µM,DYRK1A,34%
same,remaining binding at 10 µM,RIOK2,82%
same,remaining binding at 10 µM,MST4,90%
same,remaining binding at 10 µM,FGFR1,92%
same,remaining binding at 10 µM,YES1,68%
same,remaining binding at 10 µM,CDK8,58%
same,remaining binding at 10 µM,CDK7,67%
same,remaining binding at 10 µM,CABC1,78%
same,remaining binding at 10 µM,PTK2,100%
same,remaining binding at 10 µM,BTK,97%
same,Kd,MAP3K19,2200 nM
same,remaining binding at 10 µM,MAP3K19; read-out: Percent Control,12%
same,remaining binding at 10 µM,MAPK15,49%
same,remaining binding at 10 µM,[1],53%
same,remaining binding at 10 µM,FLT4,100%
same,remaining binding at 10 µM,CDK11B,96%
same,remaining binding at 10 µM,STK4,97%
same,remaining binding at 10 µM,BMPR1B,66%
same,remaining binding at 10 µM,CDC2L2,69%
same,remaining binding at 10 µM,RAF1,69%
same,remaining binding at 10 µM,TNK2,91%
